Laboratory results as given in PubChem BioAssay AID1417 (Emory University Molecular Libraries Screening Center, 2008).

These compounds were tested against Induced myeloid leukemia cell differentiation protein Mcl-1 (Homo sapiens) (UniProt Q07820) (assay: Mcl-1/Noxa binding inhibitor potency, dose response, biochemical, TR-FRET (AID 1417)). Conditions: Mcl-1/Noxa peptide interaction, cell-free TR-FRET (terbium/rhodamine), 2 h; measured here: absolute IC50.
Sequence of Induced myeloid leukemia cell differentiation protein Mcl-1 (Homo sapiens) (Q07820 whole entry, looked up): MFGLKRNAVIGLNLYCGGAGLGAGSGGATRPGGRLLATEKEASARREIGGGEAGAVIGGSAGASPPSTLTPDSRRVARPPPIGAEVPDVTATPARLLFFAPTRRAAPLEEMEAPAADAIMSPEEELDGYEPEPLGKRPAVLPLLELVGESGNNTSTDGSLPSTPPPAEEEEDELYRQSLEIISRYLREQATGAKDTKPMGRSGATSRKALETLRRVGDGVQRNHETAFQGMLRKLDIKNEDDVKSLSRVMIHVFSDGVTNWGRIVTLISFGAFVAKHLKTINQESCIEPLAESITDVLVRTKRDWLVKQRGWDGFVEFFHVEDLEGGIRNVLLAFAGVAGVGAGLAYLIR
For `O=C(Nc1nc2ccccc2[nH]1)c1ccc(Cl)c([N+](=O)[O-])c1`, the IC50 was 8.74 µM.
In the case of `O=C(O)c1ccc(N/N=C/c2ccc(OC(=O)c3cccc(Cl)c3)cc2)cc1`, the IC50 is reported as 7.31 µM.
Work on `CC[C@H](C)NC(=O)c1ccc(Cn2c(=S)[nH]c3c([nH]c4ccc(OC)cc43)c2=O)cc1` yielded an IC50 of 6.17 µM.
In the case of `Brc1ccc(C2Nc3cccc4cccc(c34)N2)s1`, the IC50 is reported as under 0.4 µM.
With `CCOC(=O)c1ccc(N=Nc2c(C)c(C#N)c(O)[nH]c2=O)cc1` the IC50 was 2.84 µM.
Work on `O=C(Cc1ccc(S(=O)(=O)N2CCOCC2)s1)Nc1nc2c(s1)CCCC2` yielded an IC50 of 5.18 µM.
For `CCCCc1[nH]nc2c1C1(C(=O)N(CC)c3ccccc31)C(C#N)=C(N)O2` (stereo not drawn), the IC50 was over 54 µM.
Work on `Oc1cccc2cc3cccc(O)c3c(O)c12` yielded an IC50 of 1.96 µM.
`COc1cc(/C=C2/C(=O)c3cccc([N+](=O)[O-])c3C2=O)c(Br)cc1O` showed an IC50 of under 0.4 µM.
`Cc1ccc2c(c1)NC(=O)c1cccnc1N2` was tested, and the IC50 was over 54 µM.
`C=C(C)C(=O)Nc1cccc(C2=NOC3(C2)C[C@@H](C(N)=O)N(C(=O)c2cc([N+](=O)[O-])cc([N+](=O)[O-])c2C)C3)c1` (stereo partly drawn) gave an IC50 of 4.09 µM.
`CCCCn1c(SCC(=O)NCCOC)nc2ccc(N3CCOCC3)cc2c1=O` showed an IC50 of over 54 µM.
Compound `COc1ccc(CN2C(=O)NC(=O)/C(=C/c3ccc([N+](=O)[O-])o3)C2=O)cc1` has an IC50 of 2.81 µM.
`O=[N+]([O-])c1cc(/C=N/Nc2nc3ccccc3[nH]2)c(O)cc1O` gave an IC50 of 13.3 µM.
With `O=C1Nc2ccc(Br)cc2/C1=C/C(=O)c1ccc2c(c1)OCO2` the IC50 was 1.38 µM.
Work on `CS(=O)(=O)C1=NSC2=NC(=O)/C(=C\c3cccn3-c3ccc(Cl)cc3)C(=N)N21` yielded an IC50 of 3.74 µM.
`CCCCN(CC)CCNc1c(N2CCN(C(=O)OCC)CC2)c(=O)c1=O` was tested, and the IC50 was 2.17 µM.
With `COc1ccc(Cc2nnc(NC(=O)Cc3cccs3)s2)cc1` the IC50 was under 0.4 µM.
With `CNC(=O)NC1CCCc2ccccc21` (stereo not drawn) the IC50 was over 54 µM.
`COc1ccccc1Nc1nc(-c2sc(NC(=O)c3ccc([N+](=O)[O-])cc3)nc2C)cs1` showed an IC50 of under 0.4 µM.
Compound `COc1ccc(N2CCC(CNC(=O)Nc3cccc(OC)c3)C2)cc1` (stereo not drawn) has an IC50 of over 54 µM.
In the case of `Cc1cc(C)c(S(=O)(=O)/N=C2/C=C(SCC(=O)O)C(=O)c3ccccc32)cc1C`, the IC50 is reported as under 0.4 µM.
`COc1ccc(N2CCC(CNC(=O)Nc3ccc(C)c(C)c3)C2)cc1` (stereo not drawn) showed an IC50 of over 54 µM.
Work on `O=C(CN1CCN(c2ccc(O)cc2)CC1)Nc1cc([N+](=O)[O-])ccc1Cl` yielded an IC50 of 6.48 µM.
With `CSc1ccc(/C=N/Nc2cccc(C(=O)O)c2)cc1` the IC50 was 0.893 µM.
Compound `COc1ccc(N2CCC(CNC(=O)Nc3ccccc3)C2)cc1` (stereo not drawn) has an IC50 of under 0.4 µM.
For `CN1CCc2cccc3c2[C@H]1Cc1ccc(O)c(O)c1-3`, the IC50 was under 0.4 µM.
`Cc1cccc(C(=O)N=c2c(C#N)cc3c(=O)n4cccc(C)c4nc3n2Cc2ccco2)c1` gave an IC50 of 4.26 µM.
For `N#Cc1cc(-c2ccccc2)nn1-c1ccccc1`, the IC50 was under 0.4 µM.
Compound `COC(=O)c1cc(O)cc(OC)c1Oc1cc(C)cc(O)c1C(=O)O` has an IC50 of over 54 µM.
With `COc1ccc(N2CCC(CNC(=S)Nc3cccc(OC)c3)C2)cc1` (stereo not drawn) the IC50 was over 54 µM.
Work on `Nc1c(C(=O)NCCN2CCOCC2)c2nc3ccccc3nc2n1Cc1ccco1` yielded an IC50 of over 54 µM.
`O=C(NCCO)Nc1ccc2nc(-c3ccco3)c(-c3ccco3)nc2c1` was tested, and the IC50 was under 0.4 µM.
Work on `O=C1CC(c2ccc(O)c(O)c2)Oc2c1ccc(O)c2O` (stereo not drawn) yielded an IC50 of 2.46 µM.
Work on `CCOc1cc(CNc2ccc(N3CCCC3)cc2)cc(Cl)c1OC` yielded an IC50 of over 54 µM.
With `O=C(NCCCO)c1ccc2nc(-c3ccco3)c(-c3ccco3)nc2c1` the IC50 was over 54 µM.
`Cc1ccc(N2CC(C(=O)Nc3ccc(N(C)C)cc3)CC2=O)cc1C` (stereo not drawn) was tested, and the IC50 was over 54 µM.
Compound `C=C(C)C(=O)Nc1cccc(C2=NOC3(C2)C[C@@H](C(N)=O)N(C(=O)/C=C/C=C/C)C3)c1` (stereo partly drawn) has an IC50 of under 0.4 µM.
Work on `Nc1cc2c(cc1[N+](=O)[O-])OCO2` yielded an IC50 of 6.98 µM.
Compound `CC(C)CNC(=O)c1c(N)n(Cc2ccco2)c2nc3ccccc3nc12` has an IC50 of over 54 µM.
`Nc1c(C(=O)NC2CC2)sc2nc3c(c(-c4ccco4)c12)CC/C3=C/c1ccco1` was tested, and the IC50 was under 0.4 µM.
Compound `COc1ccc2c(=O)c3c(=O)n(-c4ccc(C)cc4)c(-c4ccccc4)nc3oc2c1` has an IC50 of over 54 µM.
`COc1ccc(-c2nn(CCC(=O)O)cc2/C=C2\SC(N)=NC2=O)cc1OC` was tested, and the IC50 was 4.36 µM.
`COc1ccc(NC(C)C(=O)Nc2ccc(C#N)cc2)cc1Cl` (stereo not drawn) gave an IC50 of over 54 µM.
With `O=S(=O)(Cc1cc(Cl)nc(-c2ccncc2)n1)c1ccccc1` the IC50 was 24.8 µM.
In the case of `CCOC(=O)/C=C(\C)Sc1cc(O)c2ccccc2c1O`, the IC50 is reported as under 0.4 µM.
Compound `O=C(NN1C(=O)/C(=C/C=C/c2ccco2)SC1=S)c1ccncc1` has an IC50 of 2.23 µM.
With `CC1=C(C#N)C(=O)NC(=O)/C1=C\c1ccc(-c2ccc(C)cc2[N+](=O)[O-])o1` the IC50 was under 0.4 µM.
For `CCC(=O)N(CC)C1=C(O)c2ccccc2C(=O)C1=O`, the IC50 was 0.997 µM.
`CN(C)c1ccc(C(CNC(=O)c2ccc(F)cc2)c2c[nH]c3ccccc23)cc1` (stereo not drawn) showed an IC50 of over 54 µM.
`O=C1/C(=C/C=C/c2ccco2)SC(=S)N1c1ccc(O)cc1` was tested, and the IC50 was under 0.4 µM.
`O=C1Nc2ccccc2/C1=N/N=C/c1ccc(-c2ccc([N+](=O)[O-])cc2)o1` gave an IC50 of under 0.4 µM.
With `Cc1cccc(-c2nc(Nc3ccc(N4CCOCC4)cc3)c3ccccc3n2)c1` the IC50 was under 0.4 µM.
